Measured values from ChEMBL document CHEMBL4800722, “Data for DCP probe BI 605906” (2021).

How the values were obtained:
[1] = biological target: Homeodomain-interacting protein kinase 3 (Homo sapiens) (UniProt Q9H422); settings: Compound concentration 1.0 uM
[2] = biological target: Epithelial discoidin domain-containing receptor 1 (Homo sapiens) (UniProt Q08345); assay: DDR1 Invitrogen Lab (UK) kinase screen (BI); settings: Compound concentration 1.0 uM
[3] = biological target: Mitogen-activated protein kinase 14 (Homo sapiens) (UniProt Q16539)
Sequence of Mitogen-activated protein kinase 14 (Homo sapiens) (Q16539 whole entry): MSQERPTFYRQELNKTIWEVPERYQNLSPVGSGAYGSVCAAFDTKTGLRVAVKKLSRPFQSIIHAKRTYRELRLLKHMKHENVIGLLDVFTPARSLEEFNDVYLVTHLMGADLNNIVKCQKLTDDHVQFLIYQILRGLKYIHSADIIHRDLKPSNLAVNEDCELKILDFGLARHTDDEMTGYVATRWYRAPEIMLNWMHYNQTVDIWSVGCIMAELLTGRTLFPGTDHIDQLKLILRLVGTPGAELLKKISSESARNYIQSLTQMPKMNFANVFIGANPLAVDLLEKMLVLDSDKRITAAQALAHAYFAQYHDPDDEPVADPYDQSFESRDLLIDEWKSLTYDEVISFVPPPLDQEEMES

[4] = biological target: Protein kinase C beta type (Homo sapiens) (UniProt P05771); settings: Compound concentration 1.0 uM
[5] = biological target: Megakaryocyte-associated tyrosine-protein kinase (Homo sapiens) (UniProt P42679); settings: Compound concentration 1.0 uM
[6] = biological target: Phosphatidylinositol 4-kinase type 2-alpha (Homo sapiens) (UniProt Q9BTU6); settings: Compound concentration 1.0 uM
[7] = biological target: Ribosomal protein S6 kinase alpha-4 (Homo sapiens) (UniProt O75676); settings: Compound concentration 1.0 uM
[8] = biological target: 5-hydroxytryptamine receptor 3A (Homo sapiens) (UniProt P46098); settings: Compound concentration 10.0 uM
[9] = biological target: Casein kinase I (Homo sapiens) (UniProt Q9HCP0+P78368+P48730+P49674+P48729); assay: CK1 DUNDEE kinase screen (BI); type: protein assay; settings: Rattus norvegicus; Compound concentration 10.0 uM
[10] = biological target: Cyclin-dependent kinase 13/Cyclin-K (Homo sapiens) (UniProt Q14004+O75909); assay: CDK13/CYCLIN K Invitrogen Lab (UK) kinase screen (BI); type: protein-complex assay; settings: Compound concentration 1.0 uM
[11] = biological target: Voltage-dependent L-type calcium channel subunit alpha-1C (CA+/PAASITE) (Rattus norvegicus, UniProt P22002); assay: CA+/PAASITE Eurofins SafetyScreen44 (BI); settings: read-out: % Ctrl
Sequence of Voltage-dependent L-type calcium channel subunit alpha-1C (CA+/PAASITE) (P22002 whole entry, canonical isoform): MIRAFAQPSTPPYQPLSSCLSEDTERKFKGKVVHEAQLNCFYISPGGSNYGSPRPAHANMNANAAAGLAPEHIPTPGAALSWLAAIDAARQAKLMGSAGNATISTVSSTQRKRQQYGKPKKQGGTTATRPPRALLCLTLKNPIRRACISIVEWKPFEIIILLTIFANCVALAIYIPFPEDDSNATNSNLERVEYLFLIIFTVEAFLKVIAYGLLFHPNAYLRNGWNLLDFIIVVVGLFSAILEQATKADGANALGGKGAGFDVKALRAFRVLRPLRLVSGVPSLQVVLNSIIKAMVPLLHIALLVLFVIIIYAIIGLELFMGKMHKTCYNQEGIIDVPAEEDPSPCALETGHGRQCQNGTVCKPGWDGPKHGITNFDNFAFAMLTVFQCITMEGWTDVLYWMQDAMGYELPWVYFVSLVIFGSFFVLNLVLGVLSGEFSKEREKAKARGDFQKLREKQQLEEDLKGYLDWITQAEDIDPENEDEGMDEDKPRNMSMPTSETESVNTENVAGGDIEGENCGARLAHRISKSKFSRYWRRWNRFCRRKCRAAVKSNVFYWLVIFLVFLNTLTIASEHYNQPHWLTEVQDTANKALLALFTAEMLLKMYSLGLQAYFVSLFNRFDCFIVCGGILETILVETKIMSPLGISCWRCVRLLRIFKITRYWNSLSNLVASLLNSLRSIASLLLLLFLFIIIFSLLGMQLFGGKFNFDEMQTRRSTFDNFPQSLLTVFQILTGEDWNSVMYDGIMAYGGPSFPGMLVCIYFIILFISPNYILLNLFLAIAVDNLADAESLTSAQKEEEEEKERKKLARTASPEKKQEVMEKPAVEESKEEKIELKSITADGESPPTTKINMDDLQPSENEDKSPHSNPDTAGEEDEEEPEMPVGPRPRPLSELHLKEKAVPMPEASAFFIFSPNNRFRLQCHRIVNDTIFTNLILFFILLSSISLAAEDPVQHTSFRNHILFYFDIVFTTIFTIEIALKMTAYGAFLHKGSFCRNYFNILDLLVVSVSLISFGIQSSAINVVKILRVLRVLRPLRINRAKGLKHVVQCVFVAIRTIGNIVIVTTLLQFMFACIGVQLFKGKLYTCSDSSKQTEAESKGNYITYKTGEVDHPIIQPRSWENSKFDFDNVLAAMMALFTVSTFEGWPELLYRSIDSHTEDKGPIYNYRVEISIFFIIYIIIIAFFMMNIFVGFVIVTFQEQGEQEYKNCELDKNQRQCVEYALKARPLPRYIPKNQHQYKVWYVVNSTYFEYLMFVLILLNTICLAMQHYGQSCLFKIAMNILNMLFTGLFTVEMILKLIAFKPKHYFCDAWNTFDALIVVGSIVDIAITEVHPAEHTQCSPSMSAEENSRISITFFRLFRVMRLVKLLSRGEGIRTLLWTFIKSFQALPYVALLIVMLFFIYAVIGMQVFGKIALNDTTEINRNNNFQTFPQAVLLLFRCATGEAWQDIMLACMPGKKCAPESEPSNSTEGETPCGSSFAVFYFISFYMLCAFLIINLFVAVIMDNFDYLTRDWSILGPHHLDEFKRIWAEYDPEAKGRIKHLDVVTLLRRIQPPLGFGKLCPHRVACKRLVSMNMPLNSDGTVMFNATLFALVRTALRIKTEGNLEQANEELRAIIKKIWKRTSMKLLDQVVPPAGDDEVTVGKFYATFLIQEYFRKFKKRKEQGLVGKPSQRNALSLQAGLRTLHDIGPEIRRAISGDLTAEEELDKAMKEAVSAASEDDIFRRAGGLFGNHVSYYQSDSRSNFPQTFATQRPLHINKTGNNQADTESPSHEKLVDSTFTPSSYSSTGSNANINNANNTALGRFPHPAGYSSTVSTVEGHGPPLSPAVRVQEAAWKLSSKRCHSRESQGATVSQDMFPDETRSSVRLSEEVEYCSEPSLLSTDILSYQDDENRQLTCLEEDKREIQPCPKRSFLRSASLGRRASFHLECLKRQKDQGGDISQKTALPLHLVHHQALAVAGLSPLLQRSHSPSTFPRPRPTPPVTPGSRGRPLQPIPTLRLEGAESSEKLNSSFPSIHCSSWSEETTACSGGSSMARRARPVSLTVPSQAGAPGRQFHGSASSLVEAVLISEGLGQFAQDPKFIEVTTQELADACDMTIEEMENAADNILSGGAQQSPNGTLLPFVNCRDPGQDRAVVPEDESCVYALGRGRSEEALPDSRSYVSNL

[12] = biological target: Phosphorylase b kinase gamma catalytic chain, testis/liver isoform (Homo sapiens) (UniProt P15735)
Sequence of Phosphorylase b kinase gamma catalytic chain, testis/liver isoform (Homo sapiens) (P15735 whole entry, looked up, canonical isoform): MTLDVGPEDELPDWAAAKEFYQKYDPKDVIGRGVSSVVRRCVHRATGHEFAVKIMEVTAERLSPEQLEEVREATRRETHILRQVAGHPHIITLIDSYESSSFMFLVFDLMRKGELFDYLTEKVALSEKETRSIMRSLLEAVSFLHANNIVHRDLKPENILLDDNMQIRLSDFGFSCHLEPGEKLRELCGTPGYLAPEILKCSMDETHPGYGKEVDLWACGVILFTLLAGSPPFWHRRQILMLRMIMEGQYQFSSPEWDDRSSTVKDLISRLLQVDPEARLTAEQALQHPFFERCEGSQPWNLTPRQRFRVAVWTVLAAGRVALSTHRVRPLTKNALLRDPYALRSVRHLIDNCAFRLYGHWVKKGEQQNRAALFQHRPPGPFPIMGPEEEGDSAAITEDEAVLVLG

[13] = biological target: Serotonin 1 (5-HT1) receptor (Rattus norvegicus) (UniProt P28564+P30940+P19327+P28565); assay: 5HT1/R Eurofins SafetyScreen44 (BI); type: protein assay
[14] = biological target: Serine/threonine-protein kinase PAK 4 (Homo sapiens) (UniProt O96013)
Sequence of Serine/threonine-protein kinase PAK 4 (Homo sapiens) (O96013 whole entry, looked up): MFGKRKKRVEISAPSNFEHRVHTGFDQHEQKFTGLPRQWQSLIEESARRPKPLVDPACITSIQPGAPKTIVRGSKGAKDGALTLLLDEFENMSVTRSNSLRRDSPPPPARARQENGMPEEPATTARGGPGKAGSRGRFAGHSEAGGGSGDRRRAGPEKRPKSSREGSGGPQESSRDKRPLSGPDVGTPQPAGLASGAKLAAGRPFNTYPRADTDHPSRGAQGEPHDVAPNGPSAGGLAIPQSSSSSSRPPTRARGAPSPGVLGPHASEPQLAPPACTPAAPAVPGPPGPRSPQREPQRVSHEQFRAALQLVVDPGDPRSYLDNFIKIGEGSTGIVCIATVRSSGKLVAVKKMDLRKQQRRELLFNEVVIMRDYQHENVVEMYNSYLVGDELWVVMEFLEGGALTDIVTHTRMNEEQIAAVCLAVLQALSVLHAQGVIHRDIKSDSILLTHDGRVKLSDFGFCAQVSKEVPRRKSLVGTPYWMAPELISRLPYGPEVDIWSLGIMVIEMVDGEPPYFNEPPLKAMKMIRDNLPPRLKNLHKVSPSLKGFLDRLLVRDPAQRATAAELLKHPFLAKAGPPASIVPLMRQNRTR

[15] = biological target: Cyclin-dependent kinase 4/cyclin D1 (Homo sapiens) (UniProt P11802+P24385); settings: Compound concentration 1.0 uM
[16] = biological target: AMPK alpha2/beta2/gamma3 (Homo sapiens) (UniProt P54646+O43741+Q9UGI9); settings: Compound concentration 1.0 uM
[17] = biological target: Ribosomal protein S6 kinase alpha-5 (Homo sapiens) (UniProt O75582); assay: RPS6KA5 Invitrogen Lab (UK) kinase screen (BI); settings: Compound concentration 1.0 uM
[18] = biological target: STE20/SPS1-related proline-alanine-rich protein kinase (Homo sapiens) (UniProt Q9UEW8); assay: STK39 (STLK3) Invitrogen Lab (UK) kinase screen (BI); settings: Compound concentration 1.0 uM
[19] = biological target: Interstitial collagenase (Homo sapiens) (UniProt P03956); settings: Compound concentration 10.0 uM
[20] = biological target: Mitogen-activated protein kinase 8 (Homo sapiens) (UniProt P45983); assay: JNK1A1SAPK1C DUNDEE kinase screen (BI); settings: Compound concentration 10.0 uM
[21] = biological target: Protein kinase C delta type (Homo sapiens) (UniProt Q05655); settings: Compound concentration 1.0 uM
[22] = biological target: Phosphatidylinositol 4-phosphate 5-kinase type-1 beta (Homo sapiens) (UniProt O14986); settings: Compound concentration 1.0 uM
Rattus norvegicus = organism: Rattus norvegicus; settings: Compound concentration 10.0 uM
[23] = biological target: Nitric oxide synthase 3 (Rattus norvegicus) (UniProt Q62600); assay: CNOS Eurofins SafetyScreen44 (BI); settings: Compound concentration 10.0 uM
Homo sapiens = organism: Homo sapiens; assay: PIK3CA/PIK3R3 Invitrogen Lab (UK) kinase screen (BI); settings: Compound concentration 1.0 uM
[24] = biological target: Beta-1 adrenergic receptor (Homo sapiens) (UniProt P08588); settings: Compound concentration 10.0 uM
[25] = biological target: Protein-tyrosine kinase 2-beta (Homo sapiens) (UniProt Q14289)
Sequence of Protein-tyrosine kinase 2-beta (Homo sapiens) (Q14289 whole entry, looked up): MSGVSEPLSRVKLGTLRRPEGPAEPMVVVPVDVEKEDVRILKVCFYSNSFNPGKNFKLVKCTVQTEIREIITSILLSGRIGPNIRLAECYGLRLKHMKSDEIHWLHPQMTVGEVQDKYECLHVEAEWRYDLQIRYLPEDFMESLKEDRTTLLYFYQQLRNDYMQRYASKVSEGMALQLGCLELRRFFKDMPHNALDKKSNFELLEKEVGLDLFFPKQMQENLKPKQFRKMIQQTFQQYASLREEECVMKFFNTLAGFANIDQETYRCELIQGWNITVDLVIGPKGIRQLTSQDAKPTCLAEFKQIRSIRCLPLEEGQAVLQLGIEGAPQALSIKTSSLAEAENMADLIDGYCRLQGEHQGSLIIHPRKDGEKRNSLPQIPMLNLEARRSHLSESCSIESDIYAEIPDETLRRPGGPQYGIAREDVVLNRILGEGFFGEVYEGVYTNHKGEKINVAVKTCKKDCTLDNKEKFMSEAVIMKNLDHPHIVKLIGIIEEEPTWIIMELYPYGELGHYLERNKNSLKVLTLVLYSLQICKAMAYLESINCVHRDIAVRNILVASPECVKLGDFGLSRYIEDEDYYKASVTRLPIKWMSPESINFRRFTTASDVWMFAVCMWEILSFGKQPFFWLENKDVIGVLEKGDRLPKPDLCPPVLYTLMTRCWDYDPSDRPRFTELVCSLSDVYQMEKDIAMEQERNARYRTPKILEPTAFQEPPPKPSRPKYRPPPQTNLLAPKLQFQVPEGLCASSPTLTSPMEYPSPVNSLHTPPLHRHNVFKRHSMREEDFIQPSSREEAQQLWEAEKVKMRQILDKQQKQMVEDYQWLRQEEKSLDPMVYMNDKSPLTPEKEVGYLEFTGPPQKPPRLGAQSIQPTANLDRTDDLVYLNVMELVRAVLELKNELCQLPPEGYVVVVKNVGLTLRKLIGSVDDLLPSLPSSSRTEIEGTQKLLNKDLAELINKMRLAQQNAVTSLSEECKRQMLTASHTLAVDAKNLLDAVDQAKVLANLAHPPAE

[26] = biological target: Proto-oncogene tyrosine-protein kinase Src (Homo sapiens) (UniProt P12931)
Sequence of Proto-oncogene tyrosine-protein kinase Src (Homo sapiens) (P12931 2-536 limits assumed): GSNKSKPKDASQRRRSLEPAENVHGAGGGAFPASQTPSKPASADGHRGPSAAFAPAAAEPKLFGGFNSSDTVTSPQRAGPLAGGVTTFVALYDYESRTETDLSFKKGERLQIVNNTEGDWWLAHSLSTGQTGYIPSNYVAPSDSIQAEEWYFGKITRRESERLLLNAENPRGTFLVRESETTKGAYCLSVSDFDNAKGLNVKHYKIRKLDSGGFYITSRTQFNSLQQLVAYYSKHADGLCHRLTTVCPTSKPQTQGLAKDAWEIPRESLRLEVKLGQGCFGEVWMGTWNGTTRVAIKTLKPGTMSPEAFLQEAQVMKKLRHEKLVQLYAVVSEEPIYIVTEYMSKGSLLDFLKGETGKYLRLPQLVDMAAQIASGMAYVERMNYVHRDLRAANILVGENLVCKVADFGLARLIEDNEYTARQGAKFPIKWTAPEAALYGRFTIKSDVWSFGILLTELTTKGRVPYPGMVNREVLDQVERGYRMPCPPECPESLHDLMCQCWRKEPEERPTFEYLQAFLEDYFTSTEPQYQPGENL

[27] = biological target: Dual specificity protein kinase CLK3 (Homo sapiens) (UniProt P49761); assay: CLK3 Invitrogen Lab (UK) kinase screen (BI); settings: Compound concentration 1.0 uM
[28] = biological target: Dual specificity tyrosine-phosphorylation-regulated kinase 2 (Homo sapiens) (UniProt Q92630); assay: DYRK2 Invitrogen Lab (UK) kinase screen (BI); settings: Compound concentration 1.0 uM
[29] = biological target: Tyrosine-protein kinase SYK (Homo sapiens) (UniProt P43405)
[30] = biological target: Serine/threonine-protein kinase MARK1 (Homo sapiens) (UniProt Q9P0L2); settings: Compound concentration 1.0 uM
[31] = biological target: Serine/threonine-protein kinase TAO1 (Homo sapiens) (UniProt Q7L7X3); assay: TAOK1 Invitrogen Lab (UK) kinase screen (BI); settings: Compound concentration 1.0 uM
[32] = biological target: Adrenergic receptor beta (Rattus norvegicus) (UniProt P18090+P10608+P26255)
[33] = biological target: Casein kinase I isoform gamma-3 (Homo sapiens) (UniProt Q9Y6M4); settings: Compound concentration 1.0 uM
[34] = biological target: Bone morphogenetic protein receptor type-2 (Homo sapiens) (UniProt Q13873); assay: BMPR2 Invitrogen Lab (UK) kinase screen (BI); settings: Compound concentration 1.0 uM
[35] = biological target: CDK18/Cyclin Y (Homo sapiens) (UniProt Q07002+Q8ND76); settings: Compound concentration 1.0 uM
[36] = biological target: Serine/threonine-protein kinase TAO2 (Homo sapiens) (UniProt Q9UL54); settings: Compound concentration 1.0 uM
[37] = biological target: Myosin light chain kinase family member 4 (Homo sapiens) (UniProt Q86YV6); assay: MYLK4 Invitrogen Lab (UK) kinase screen (BI); settings: Compound concentration 1.0 uM
[38] = biological target: Phosphatidylinositol 4-phosphate 5-kinase type-1 alpha (Homo sapiens) (UniProt Q99755); assay: PIP5K1A Invitrogen Lab (UK) kinase screen (BI); settings: Compound concentration 1.0 uM
[39] = biological target: Ephrin type-B receptor 1 (Homo sapiens) (UniProt P54762); assay: EPHB1 Invitrogen Lab (UK) kinase screen (BI); settings: Compound concentration 1.0 uM
[40] = Compound concentration 100.0 uM

## CCC(F)(F)c1cc(N2CCC(S(C)(=O)=O)CC2)nc2sc(C(N)=O)c(N)c12 [BI-605906]
[1]
  residual activity: 95%
[2]
  residual activity: 84%
[3]; Compound concentration 1.0 uM
  residual activity: 92%
[3]; Compound concentration 10.0 uM
  residual activity: 60%
[4]
  residual activity: 99%
[5]
  residual activity: 101%
[6]
  residual activity: 92%
[7]
  residual activity: 96%
[8]
  inhibition: -5.46%
[9]
  residual activity: 68.6%
[10]
  residual activity: 85%
[11]; compound concentration 10 uM
  activity at 10 µM: 99% (not active)
[11]; compound concentration 100 uM
  activity at 100 µM: 70% (not active)
[12]; Compound concentration 1.0 uM
  residual activity: 99%
[12]; Compound concentration 10.0 uM
  residual activity: 97%
[13]; Compound concentration 10.0 uM
  residual activity: 119%
[13]; [40]
  residual activity: 107%
[14]; Compound concentration 1.0 uM
  residual activity: 95%
[14]; Compound concentration 10.0 uM
  residual activity: 80%
[15]
  residual activity: 99%
[16]
  residual activity: 99%
[17]
  residual activity: 102%
[18]
  residual activity: 88%
[19]
  residual activity: 94%
[20]
  residual activity: 93.8%
[21]
  residual activity: 109%
[22]
  residual activity: 108%
Rattus norvegicus
  residual activity: 97%
[23]
  residual activity: 102%
Homo sapiens
  residual activity: 103%
[24]
  inhibition: -8.38%
[25]; Compound concentration 1.0 uM
  residual activity: 91%
[25]; Compound concentration 10.0 uM
  residual activity: 70%
[26]; Compound concentration 1.0 uM
  residual activity: 79%
[26]; Compound concentration 10.0 uM
  residual activity: 92%
[27]
  residual activity: 102%
[28]
  residual activity: 62%
[29]; Compound concentration 1.0 uM
  residual activity: 94%
[29]; Compound concentration 10.0 uM
  residual activity: 97%
[30]
  residual activity: 91%
[31]
  residual activity: 88%
[32]; Compound concentration 10.0 uM
  residual activity: 86%
[32]; [40]
  residual activity: 94%
[33]
  residual activity: 99%
[34]
  residual activity: 65%
[35]
  residual activity: 96%
[36]
  residual activity: 101%
[37]
  residual activity: 83%
[38]
  residual activity: 83%
[39]
  residual activity: 85%
